This test addresses glutathione-S-transferase Pi 1 (GSTP1) (Homo sapiens, UniProt P09211). Nature of the test: CDNB-glutathione conjugation assay with pure GSTP1 after […] min pre-incubation. The format is biochemical.

A word on the IC50: it is the point on the concentration scale where inhibition reaches its midpoint. A higher IC50 goes with weaker potency.

Chain of glutathione-S-transferase Pi 1 (GSTP1) (P09211 2-210): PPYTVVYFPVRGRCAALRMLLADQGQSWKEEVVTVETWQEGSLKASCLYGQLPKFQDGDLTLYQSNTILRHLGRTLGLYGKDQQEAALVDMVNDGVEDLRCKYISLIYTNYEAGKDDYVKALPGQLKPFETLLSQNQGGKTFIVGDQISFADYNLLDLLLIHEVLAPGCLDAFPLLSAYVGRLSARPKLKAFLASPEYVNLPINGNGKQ

LAS17 gave an IC50 of 500 nM.

For the origin of these results see PMC4876719 (Cell chemical biology, 2016).
